Experimental data reported in patent US12435316B2, “Three dimensional human brain tumor models” (priority 2018, dated 2025).

System: 3D patient-derived meningioma models (pediatric patient's meningioma tissue)
Experiment: Drug treatment of 3D patient-derived meningioma models, live cell staining (calcein AM) and confocal imaging
Format: cell-based, human
Conditions: one month-old 3D pediatric meningioma models; drug 0.05 to 0.8 mM for 48 hours; calcein AM live stain; compared to etoposide, carmustine, irinotecan hydrochloride, temozolomide
Protocol: FIGS. 7A-7B show drug treatment of 3D patient-derived meningioma models. A pediatric patient's meningioma tissue was used to generate replicates of 3D tumor models. One month-old models were treated with chemotherapeutic drugs, etoposide (VP16), carmustine (BCNU), lomustine (CCNU), irinotecan hydrochloride (CPT11) and temozolomide (TMZ) of 0.05 to 0.8 mM for 48 hours. The models were stained with calcein AM (2 uM) for live cells and confocal imaged ([…] section, 35 sections). (FIG. 7A) Maximum projection of 3D image stacks of drug-treated models. Number indicates drug concentration in mM. Ctrl, control. Scale bar, […]. (FIG. 7B) Quantification of live cell counts in relation to drug doses.
FIGS. 7A-7B show an example of drug study using patient-derived tumor models. This example used a pediatric meningioma model to test commonly used chemotherapeutic drugs (etoposide, carmustine, lomustine, irinotecan hydrochloride and temozolomide). […] Additional studies will compare the in vitro findings with the patient's clinical responses to further determine the most optimal drug regimen.
Live/Dead Assay was used to image live cells in cultures, according to the manufacturer's protocol (ThermoFisher Scientific). […] The stained cultures were imaged with a fluorescence microscope at Ex/Em of 494/517 nm and 528/617 nm for Live and Dead stains, respectively. […]

With `O=NN(CCCl)C(=O)NC1CCCCC1` [lomustine] the “tumor cell-killing effects (live cell counts in relation to drug doses)” value was “strongest tumor cell-killing effects”.
